# Test results reported in the supplement of paper PMC11061612.
# Tests used:
# Experiment in all cases: combination Emax (second highest fraction inhibited in the dose matrix, 72 h); higher = more inhibition; extreme values may be limits of the assay
# [1] = system: CAPAN-1 (Pancreatic Carcinoma)
# Outline: (§1)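 Bliss excess equals the observed combination effect minus the expected value EA + EB − EA·EB, where EA and EB are the effects of each agent alone. Combination Emax is the second-highest inhibition within the matrix. Inhibition was scaled from CellTiter-Glo 2.0 luminescence, with 0 set by vehicle wells and 1 by blank wells, after 72 hours of two-drug dosing of cells plated in 1536-well plates.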
# HMV-II (Melanoma) = system: HMV-II (Melanoma)
# Outline: as §1
# [2] = system: Hs-633T (Other Solid Carcinomas)
# Outline: as §1
# [3] = system: SW1271 (Small Cell Lung Carcinoma)
# Outline: as §1
# [4] = system: EN (Endometrial Carcinoma)
# Outline: as §1
# [5] = system: LB771-HNC (Head and Neck Carcinoma)
# Outline: as §1
# [6] = system: SW1116 (Colorectal Carcinoma)
# Outline: as §1
# [7] = system: HO-1-u-1 (Oral Cavity Carcinoma)
# Outline: as §1
# SH-4 (Melanoma) = system: SH-4 (Melanoma)
# Outline: as §1
# [8] = system: MHH-PREB-1 (B-Cell Non-Hodgkin's Lymphoma)
# Outline: as §1
# [9] = system: SU-DHL-6 (B-Cell Non-Hodgkin's Lymphoma)
# Outline: as §1
# [10] = system: 639-V (Bladder Carcinoma)
# Outline: as §1
# [11] = system: MDA-MB-468 (Breast Carcinoma)
# Outline: as §1
# [12] = system: OC-314 (Ovarian Carcinoma)
# Outline: as §1
# Mewo (Melanoma) = system: Mewo (Melanoma)
# Outline: as §1
# COLO-829 (Melanoma) = system: COLO-829 (Melanoma)
# Outline: as §1
# [13] = system: CAL-51 (Breast Carcinoma)
# Outline: as §1
# [14] = system: LoVo (Colorectal Carcinoma)
# Outline: as §1
# [15] = system: KARPAS-231 (B-Cell Non-Hodgkin's Lymphoma)
# Outline: as §1
# [16] = system: HARA (Squamous Cell Lung Carcinoma)
# Outline: as §1
SMILES,combination Emax [1],combination Emax (HMV-II (Melanoma)),combination Emax [2],combination Emax [3],combination Emax [4],combination Emax [5],combination Emax [6],combination Emax [7],combination Emax (SH-4 (Melanoma)),combination Emax [8],combination Emax [9],combination Emax [10],combination Emax [11],combination Emax [12],combination Emax (Mewo (Melanoma)),combination Emax (COLO-829 (Melanoma)),combination Emax [13],combination Emax [14],combination Emax [15],combination Emax [16]
"CC1(C)CCC(CN2CCN(c3ccc(C(=O)NS(=O)(=O)c4ccc(NCC5CCOCC5)c([N+](=O)[O-])c4)c(Oc4cnc5[nH]ccc5c4)c3)CC2)=C(c2ccc(Cl)cc2)C1 [Venetoclax] + C[C@@H]1COCCN1C2=NC(=NC(=C2)C3(CC3)[S@](=N)(=O)C)C4=C5C=CNC5=NC=C4 [AZD6738] (first compound max 1 µM, 7x7, partner max 10 µM)",0.416,0.464,0.763,0.612,0.64,0.474,0.329,0.853,0.304,0.795,0.92,0.479,0.624,0.897,0.556,0.349,0.909,0.767,1,0.804
"CC1(C)CCC(CN2CCN(c3ccc(C(=O)NS(=O)(=O)c4ccc(NCC5CCOCC5)c([N+](=O)[O-])c4)c(Oc4cnc5[nH]ccc5c4)c3)CC2)=C(c2ccc(Cl)cc2)C1 [Venetoclax] + C[C@@H](Nc1cc(F)cc(F)c1)c1cc(C(=O)N(C)C)cc2c(=O)cc(N3CCOCC3)oc12 [AZD8186] (first compound max 1 µM, 7x7, partner max 3 µM)",0.178,0.263,0.186,0.151,0.422,0.283,0.0998,0.267,0.192,0.21,1,0.321,0.387,0.242,0.434,0.243,0.0234,0.494,0.792,0.607
"CC1(C)CCC(CN2CCN(c3ccc(C(=O)NS(=O)(=O)c4ccc(NCC5CCOCC5)c([N+](=O)[O-])c4)c(Oc4cnc5[nH]ccc5c4)c3)CC2)=C(c2ccc(Cl)cc2)C1 [Venetoclax] + Cc1cc2ncnn2cc1Nc1ncc2c(n1)n(C1CCOCC1)c(=O)n2C [AZD7648] (first compound max 1 µM, 7x7, partner max 10 µM)",0.195,0.263,0.188,0.202,0.49,0.271,0.151,0.305,0.279,0.178,0.853,0.244,0.397,0.251,0.509,0.143,0.289,0.443,0.808,0.572
"CC1(C)CCC(CN2CCN(c3ccc(C(=O)NS(=O)(=O)c4ccc(NCC5CCOCC5)c([N+](=O)[O-])c4)c(Oc4cnc5[nH]ccc5c4)c3)CC2)=C(c2ccc(Cl)cc2)C1 [Venetoclax] + Cn1cnc2c(F)c(Nc3ccc(Br)cc3Cl)c(C(=O)NOCCO)cc21 [Selumetinib] (first compound max 1 µM, 7x7, partner max 3 µM)",0.314,0.779,0.228,0.432,0.373,0.132,0.453,0.286,0.872,0.147,0.88,0.27,0.315,0.134,0.528,0.426,0.214,0.374,0.812,0.617
